Laboratory results as given in patent US20240245674A1, “DIAGNOSTIC METHODS AND COMPOSITIONS FOR TREATMENT OF CANCER” (LINNAEUS THERAPEUTICS, INC., priority 2021, published 2024).

Assays:
Assay type in all cases: in vivo, human
[1] = system: prolactin (systemic marker of GPER activity); assay: Prolactin induction in blood of patients after LNS8801 dosing, versus best RECIST response
Protocol: Blood was collected from patients pre-dose and at 0.5, 1, 2, 4, 7, and 10 hours after dosing and analyzed for the concentration of prolactin. Prolactin induction was calculated by dividing the average of the 4 hour through 10 hour timepoints by the average of pre-dose to 2 hour timepoints. Prolactin-induction was plotted with the best RECIST response of target lesions, and linear regression was performed.
Blood was collected from patients pre-dose and 0.5, 1, 2, 4, 7, and 10 hours after dosing and analyzed for the concentration of prolactin (PRLX). Prolactin induction was calculated by dividing the average of the 4 hour through 10 hour timepoints by the average of pre-dose to 2 hour timepoints.

[2] = LNS8801 pharmacokinetics in patients with advanced cancer (plasma concentration by mass spectrometry)
Protocol: Patients with advanced cancer were dosed with 10, 40, and 125 mg of LNS8801 in a capsule on three consecutive days/week. Blood was collected from patients pre-dose and at 0.5, 1, 2, 4, 7, 10, and 24 hours after dosing. Samples were analyzed by mass spectrometry for the concentration of LNS8801. […] LNS8801 is well absorbed, producing plasma exposures that are predicted to be efficacious, even at the lowest dose evaluated. Half-life in humans is approximately 10 hours.

[3] = system: c-Myc positive tumor cells; assay: c-Myc immunohistochemistry on pre- and on-treatment tumor biopsies; settings: on-treatment biopsies 8-19 days after start vs pre-treatment; most samples
Text: Pre-treatment biopsies were collected within 28 days of initiating treatment, and on-treatment biopsies were collected 8-19 days after LNS8801 treatment began. Tumor samples were formalin-fixed, paraffin-embedded, sectioned, and assessed for c-Myc positive tumor cells by immunohistochemistry by a blinded pathologist.

Absorption / plasma exposure ([2]; 10, 40, 125 mg capsule): well absorbed | half-life ([2]; human, plasma, oral, humans, 10, 40, 125 mg capsule, three consecutive days/week): ~10 h
SMILES: CC(=O)c1ccc2c(c1)[C@@H]1C=CC[C@@H]1[C@H](c1cc3c(cc1Br)OCO3)N2 [LNS8801, 1-((3aS,4R,9bR)-4-(6-bromobenzo[d][1,3]dioxol-5-yl)-3a,4,5,9b-tetrahydro-3H-cyclopenta[c]quinolin-8-yl)ethan-1-one]
Patients lacking a prolactin response (<1.25-fold induction) ([1]; evaluable patients, every such patient had progressive disease): 35% | Change in prolactin levels on treatment ([1]; patients with progressive disease under RECIST): reduction or no change in prolactin levels | Change in c-Myc positive tumor cells after treatment [3]: dramatic depletion in c-Myc positive tumor cells
